Assay results as given in patent publication US20190093096A1, “COMOSAIN AND BROMELAINS AS IMMUNO-THERAPY IN THE TREATING AND/OR PREVENTING VARIOUS TYPES OF CANCER IN A MAMMAL” (priority 2017, published 2019).

B1: trypsin: proteinase purchased from Sigma-Aldrich (protein, UniProt P00760 24-246, looked up)
Serine protease 1: IVGGYTCGANTVPYQVSLNSGYHFCGGSLINSQWVVSAAHCYKSGIQVRLGEDNINVVEGNEQFISASKSIVHPSYNSNTLNNDIMLIKLKSAASLNSRVASISLPTSCASAGTQCLISGWGNTKSSGTSYPDVLKCLKAPILSDSSCKSAYPGQITSNMFCAGYLEGGKDSCQGDSGGPVVCSGKLQGIVSWGSGCAQKNKPGVYTKVCNYVSWIKQTIASN

What was measured:
[1] = Toxicity of rutin, quercetin, kaempherol and vitexin in mice by oral administration; conditions: for adverse effects on hematopeutic, renal, hepatic systems / toxicity: oral, mouse, rutin 1500, quercetin 1250, kaempherol 1000, vitexin 500 mg/kg; for body weight during observation / pathological abnormality of internal organs, visually or microscopically / survival at day 180: single oral dose; for body weight during observation: 180 days of observation; for pathological abnormality of internal organs, visually or microscopically: sacrifice on day 181; for survival at day 180: rutin 1500, kaempherol 1000, vitexin 500 mg/kg
[2] = Analysis for fatty streak deposition in thoracic aorta; type: in vivo, New Zealand white rabbits; conditions: control group: thick layer; 1% cholesterol diet, 8 weeks
[3] = Fatty degeneration in the liver of the rabbits; type: in vivo, New Zealand white rabbits; conditions: 1% cholesterol diet, 8 weeks
Description: According to the report of Fogt F. and Nanji A., (Toxicology and Applied Pharmacology; 136, pp 87-93, 1996) and Keegan A. et al., (Journal of Hepatology; 23, pp 591-600, 1995). Fatty degeneration of liver can be classified into four grades based upon the abnormal fat containing cells around the central vein of liver acinus, for example: grade 1 (0-25%), grade 2 (26-50%), grade 3 (51-75%), grade4 (76-100%). The effects of rutin, quercetin, kaempherol and vitexin on liver tissue on the rabbits from Example 4 Step B were examined.

[4] = Blood analysis on rabbits fed high cholesterol diets; type: in vivo, New Zealand white rabbits; conditions: for decrease of plasma total cholesterol as compared to control group / decrease of plasma triglycerides as compared to control group: 1% cholesterol diet plus 0.15% flavonoid
Experimental: The rabbits were fed for 8 weeks with free access to specific high cholesterol diets and water. Body weight was recorded every 7 days and the records were analyzed. […] (Rutin, quercetin and kaempherol were purchased from Aldrich-Sigma Co. St. Louis, Mo. USA) (Vitexin was purchased from Indofine Co. Sumerville, N.J. USA)
(Step B) After 8 weeks of breeding, the rabbits were anesthetized with injection of ketamine 75 mg/kg in the femoral muscle and sacrificed. Blood samples were collected from the heart of each rabbit to determine the blood analysis consisting of; complete blood count (CBC), Chemistry-7 and 24, (including Liver and renal function tests), lipid profiles, (including Total cholesterol, HDL, LDL, VLDL and triglycerides), coagulation factors consisting of; Prothrombin time (PT), Partial thromboplastin time (PTT), and immuno-globulin-E (an anti-allergenic factor).
The blood samples collected from rabbits of the six dietary groups were allowed to stand for 2 hours, then centrifuged at 4000 rpm for 10 minutes. (Megafuge, Baxter-Heraeus instrument Co. N.J., USA) The supernatants were separated and stored in a deep freeze before analysis. The chemistry analysis was carried out by blood chemistry analyzer (Cobras-Integra-700, Roche Diagnostic Lab. Indiana, USA) to determine the changes in total cholesterol, HDL, LDL, triglycerides, liver function tests (such as SGOT, SGPT, G-GPT) and coagulation factors (PT, PTT) (Bayer-MLA-Electra-900 Automatic coagulation timer). The results were tested by using student t-test and Microsoft excel-7.0 program. The results are depicted in Table III. • 3.

breast cancer cell line = assay: Growth inhibition of breast cancer cell line by Quercetin and Naringenin in vitro; type: cell-based
lung cancer cells = assay: Inhibition of tumor cell growth of lung cancer by pepsin and trypsin in vitro; type: cell-based; conditions: 72 hours at 37 C, 10% CO2, Coulter counter
Description: The graph represents the two experiments with Pepsin and Trypsin.

| Molecule | adverse effects on hematopeutic, renal, hepatic systems [1] | toxicity [1] | body weight during observation [1] | pathological abnormality of internal organs, visually or microscopically [1] | survival at day 180 [1] | macrophage lipid cell complex in the aorta walls (microscopic pictures) [2] | microscopic features of the liver (fat containing cells) [3] | liver function and WBC ([4]; rabbit, in vivo) | decrease of plasma total cholesterol as compared to control group ([4]; rabbits, 8 weeks) [%] | decrease of plasma triglycerides as compared to control group ([4]; rabbits, 8 weeks) [%] | reducing plasma total cholesterol and triglycerides, compared with Simvastatin ([4]; rabbits, 8 weeks) | growth of breast cancer cell line (breast cancer cell line) | liver function and WBC ([4]; rabbits, 8 weeks, unlike the Simvastatin group) | tumor cell growth of lung cancer (lung cancer cells) |
| --- | --- | --- | --- | --- | --- | --- | --- | --- | --- | --- | --- | --- | --- | --- |
| O=c1c(O)c(-c2ccc(O)cc2)oc2cc(O)cc(O)c12 [Kaempherol, 3,5,7,4′ tetra-hydroxy-flavone] | no adverse effects | no toxicity | no body weight loss | did not develop any pathological abnormality | All mice were alive | no or a very thin layer of macrophage lipid cell complex | almost all of the liver cells are normal without containing fat particles | not affected | 30 | 22 | more effective | – | – | – |
| O=C1C[C@@H](c2ccc(O)cc2)Oc2cc(O)cc(O)c21 [Naringenin] | – | – | – | – | – | – | – | – | – | – | – | Growth inhibition | – | – |
| O=c1c(O)c(-c2ccc(O)c(O)c2)oc2cc(O)cc(O)c12 [Quercetin, 3,5,7,3′,4′ penta-hydroxy flavone] | no adverse effects | – | no body weight loss | did not develop any pathological abnormality | All mice were alive | no or a very thin layer of macrophage lipid cell complex | almost all of the liver cells are normal without containing fat particles | not affected | 33 | 47 | more effective | Growth inhibition | – | – |
| C[C@@H]1O[C@@H](OC[C@H]2O[C@@H](Oc3c(-c4ccc(O)c(O)c4)oc4cc(O)cc(O)c4c3=O)[C@H](O)[C@@H](O)[C@@H]2O)[C@H](O)[C@H](O)[C@H]1O [Rutin, Quercetin-3-rutinoside] | no adverse effects | no toxicity | no body weight loss | did not develop any pathological abnormality | All mice were alive | – | – | – | 32 | 45 | – | – | not affected | – |
| O=c1cc(-c2ccc(O)cc2)oc2c(C3O[C@H](CO)[C@@H](O)[C@H](O)[C@H]3O)c(O)cc(O)c12 (stereo partly drawn) [Vitexin, 8-D-glucosyl-4′,5,7 trihydroxy-flavone] | no adverse effects | no toxicity | no body weight loss | did not develop any pathological abnormality | All mice were alive | no or a very thin layer of macrophage lipid cell complex | almost all of the liver cells are normal without containing fat particles | not affected | 30 | 17 | more effective | – | – | – |
| pepsin: proteinase purchased from Sigma-Aldrich | – | – | – | – | – | – | – | – | – | – | – | – | – | Inhibition of tumor cell growth |
| B1 | – | – | – | – | – | – | – | – | – | – | – | – | – | Inhibition of tumor cell growth |
